In ChEMBL document CHEMBL1126970, “Development of 1,4-benzodiazepine cholecystokinin type B antagonists” (J Med Chem, 1993):

Legend:
[1] = Bioavailability in rat after 120 minutes at an oral dose of 2.5 mg/kg; format: ADME, organism-based; settings: plasma
[2] = biological target: T1, Cholecystokinin receptor type A (Rattus norvegicus, UniProt P30551); assay: (§1) Inhibition of binding of [125I]CCK-8 to cholecystokinin type A receptor in rat pancreatic tissue
T1 sequence (P30551 whole entry): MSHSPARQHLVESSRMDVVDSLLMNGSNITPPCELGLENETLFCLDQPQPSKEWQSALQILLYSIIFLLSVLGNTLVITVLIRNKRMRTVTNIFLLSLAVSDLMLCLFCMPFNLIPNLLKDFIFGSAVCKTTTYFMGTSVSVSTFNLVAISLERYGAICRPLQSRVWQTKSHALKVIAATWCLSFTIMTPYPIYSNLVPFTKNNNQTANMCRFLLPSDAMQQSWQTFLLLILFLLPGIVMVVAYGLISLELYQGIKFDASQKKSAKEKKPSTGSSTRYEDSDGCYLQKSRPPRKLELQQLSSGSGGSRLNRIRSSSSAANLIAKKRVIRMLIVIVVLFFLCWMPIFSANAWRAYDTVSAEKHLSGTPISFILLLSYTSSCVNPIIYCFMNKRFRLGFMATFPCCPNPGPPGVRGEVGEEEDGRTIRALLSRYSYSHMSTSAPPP

[3] = Bioavailability in rat after 30 minutes at an oral dose of 2.5 mg/kg; format: ADME, organism-based; settings: plasma
Cavia porcellus = species: Cavia porcellus; assay: Selectivity ratio between CCK-B and CCK-A receptor; parameters: reference not given here
[4] = biological target: T2, Cholecystokinin receptor type A (Rattus norvegicus) (UniProt P30551); assay: as §1; parameters: concentration or dose not given beside the values; settings: concentration not given here
T2 sequence (whole entry): T1 sequence (P30551 whole entry)

[5] = Inhibition of binding of [125I]-CCK-8 to the cholecystokinin type B receptor
Mus musculus [6] = assay: Effective dose required to antagonise pentagastrin stimulated acid secretion in mouse when administered iv 60-80 min prior to pentagastrin; format: functional
Mus musculus [7] = assay: Effective dose required to antagonise pentagastrin stimulated acid secretion in mouse when administered iv 5 min prior to pentagastrin; format: functional
Mus musculus [8] = assay: Effective dose required to antagonise pentagastrin stimulated acid secretion in mouse when administered orally 85-100 min prior to pentagastrin; format: functional; settings: po

Work on `CN1C(=O)C(NC(=O)Nc2cccc(C(F)(F)F)c2)N=C(c2ccccc2)c2ccccc21` (stereo unspecified) yielded a concentration at 2 h [1] of 102 ng/mL, an IC50 [2] of 740 nM and a concentration at 0.5 h [3] of 120 ng/mL. For the same compound, the Selectivity ratio (Cavia porcellus) was 195.

Compound `CN1C(=O)C(NC(=O)Nc2ccc(Cl)nc2)N=C(c2ccccc2)c2ccccc21` (stereo unspecified) has an inhibition [4] of 23% and a Selectivity ratio (Cavia porcellus) of over 65.

In the case of `CN1C(=O)C(NC(=O)Nc2ccc3c(c2)OCO3)N=C(c2ccccc2)c2ccccc21` (stereo unspecified), the inhibition [4] is reported as over 3% and the Selectivity ratio (Cavia porcellus) is reported as over 100.

Work on `Cc1cccc(NC(=O)NC2N=C(c3ccccc3)c3ccccc3N(CC(=O)ON3CCC[C@@H]3C(=O)O)C2=O)c1` (mixture of isomers) yielded an IC50 [2] of 20000 nM and a Selectivity ratio (Cavia porcellus) of 15.

In the case of `CCN(CC)C[C@H](O)CN1C(=O)C(NC(=O)Nc2ccc(Cl)cc2)N=C(c2ccccc2)c2ccccc21` (mixture of isomers), the inhibition [4] is reported as over 14% and the Selectivity ratio (Cavia porcellus) is reported as over 7.

With `O=C(Nc1ccc(Cl)cc1)NC1N=C(c2ccccc2)c2ccccc2N(C[C@@H](O)CCl)C1=O` (mixture of isomers) the inhibition [4] was over 15% and the Selectivity ratio (Cavia porcellus) was over 500.

In the case of `O=C(Nc1ccc(Cl)cc1)NC1N=C(c2ccccc2)c2ccccc2N(C[C@@H](O)CN2CCCC2)C1=O` (mixture of isomers), the inhibition [4] is reported as over 16% and the Selectivity ratio (Cavia porcellus) is reported as over 10.

`O=C(Nc1ccc(Cl)cc1)NC1N=C(c2ccccc2)c2ccccc2N(C[C@@H](O)CO)C1=O` (mixture of isomers) gave an inhibition [4] of over 9% and a Selectivity ratio (Cavia porcellus) of over 30.

Compound `COc1cccc(NC(=O)NC2N=C(c3ccccc3)c3ccccc3N(CCC(=O)O)C2=O)c1` (racemic) has an IC50 [2] of 9 nM and a Selectivity ratio (Cavia porcellus) of 0.036.

`CN1C(=O)C(NC(=O)Nc2ccncc2)N=C(c2ccccc2)c2ccccc21` (racemic) gave an IC50 [2] of 1510 nM and a Selectivity ratio (Cavia porcellus) of 1.4.

In the case of `Cc1cccc(NC(=O)NC2N=C(c3ccccc3)c3ccccc3N(CCOC(=O)CCC(=O)O)C2=O)c1` (racemic), the IC50 [2] is reported as 37 nM and the Selectivity ratio (Cavia porcellus) is reported as 5.

`Cc1ccc(NC(=O)NC2N=C(c3ccccc3)c3ccccc3N(CC(=O)Nc3ccncc3)C2=O)cc1` (racemic) showed an IC50 [2] of 4000 nM and a Selectivity ratio (Cavia porcellus) of 21.

`Cc1cccc(NC(=O)NC2N=C(c3ccncc3)c3ccccc3N(C)C2=O)c1` (racemic) gave an IC50 [2] of 390 nM and a Selectivity ratio (Cavia porcellus) of 7.5.

For `CN1C(=O)C(NC(=O)Nc2cccc(-c3ccccc3)c2)N=C(c2ccccc2)c2ccccc21` (racemic), the IC50 [2] was 123 nM and the Selectivity ratio (Cavia porcellus) was 1.

`CCN(CC)CC(=O)OCCN1C(=O)C(NC(=O)Nc2cccc(C)c2)N=C(c2ccccc2)c2ccccc21` (racemic) gave an IC50 [2] of 190 nM and a Selectivity ratio (Cavia porcellus) of 34.

Work on `CN1C(=O)C(NC(=O)Nc2cccc3ccccc23)N=C(c2ccccc2)c2ccccc21` (racemic) yielded an IC50 [2] of 68 nM and a Selectivity ratio (Cavia porcellus) of 0.9.

`COc1cccc(NC(=O)NC2N=C(c3ccccc3)c3ccccc3N(CC(=O)N3CCN(C)CC3)C2=O)c1` (racemic) gave an IC50 [2] of 1400 nM and a Selectivity ratio (Cavia porcellus) of 318.

Work on `CN1C(=O)C(NC(N)=O)N=C(c2ccccc2)c2ccccc21` (racemic) yielded an IC50 [2] of 55000 nM and a Selectivity ratio (Cavia porcellus) of over 0.5.

Work on `Cc1cccc(NC(=O)NC2N=C(c3ccccc3)c3ccccc3N(CCN(C)C)C2=O)c1` (racemic) yielded an IC50 [2] of 1890 nM, a concentration at 0.5 h [3] of 75 ng/mL and a Selectivity ratio (Cavia porcellus) of 73.

For `Cc1cccc(NC(=O)NC2N=C(c3ccccc3)c3cccnc3N(C)C2=O)c1` (racemic), the IC50 [2] was 104 nM and the Selectivity ratio (Cavia porcellus) was under 0.01.

In the case of `O=C(Nc1ccc(Cl)cc1)NC1N=C(c2ccccc2)c2ccccc2NC1=O` (racemic), the IC50 [2] is reported as 110 nM and the Selectivity ratio (Cavia porcellus) is reported as 0.4.

`Cc1cccc(NC(=O)NC2N=C(c3ccccc3)c3ccncc3N(C)C2=O)c1` (racemic) showed an IC50 [2] of 144 nM and a Selectivity ratio (Cavia porcellus) of under 0.01.

With `CN1C(=O)C(NC(=O)Nc2cccc(C(=O)O)c2)N=C(c2ccccc2)c2ccccc21` (racemic) the IC50 [2] was 14 nM and the Selectivity ratio (Cavia porcellus) was 1.4.

In the case of `CCN(CC)C(=O)C(C)N1C(=O)C(NC(=O)Nc2ccc(Cl)cc2)N=C(c2ccccc2)c2ccccc21` (racemic), the IC50 [2] is reported as 410 nM and the Selectivity ratio (Cavia porcellus) is reported as 19.

For `CCN(CC)C(=O)CN1C(=O)C(NC(=O)Nc2ccccc2Cl)N=C(c2ccccc2)c2ccccc21` (racemic), the IC50 [2] was 200 nM and the Selectivity ratio (Cavia porcellus) was 53.

Work on `Cc1cccc(NC(=O)NC2N=C(c3ccccc3)c3ccccc3N(CC(=O)O)C2=O)c1` (racemic) yielded an IC50 [2] of 7.6 nM and a Selectivity ratio (Cavia porcellus) of 0.02.

For `CCOC(=O)CCN1C(=O)C(NC(=O)Nc2cccc(OC)c2)N=C(c2ccccc2)c2ccccc21` (racemic), the IC50 [2] was 340 nM and the Selectivity ratio (Cavia porcellus) was 340.

`Cc1cccc(NC(=O)NC2N=C(c3ccccc3)c3ccccc3N(Cc3n[nH]c(C)n3)C2=O)c1` (racemic) showed an IC50 [2] of 566 nM and a Selectivity ratio (Cavia porcellus) of 58.

`CN1C(=O)C(NC(=O)Nc2ccc3ncccc3c2)N=C(c2ccccc2)c2ccccc21` (racemic) gave an IC50 [2] of 310 nM and a Selectivity ratio (Cavia porcellus) of 6.

With `CCN(CC)C(=O)CN1C(=O)C(NC(=O)Nc2cccc(OC)c2)N=C(c2ccccc2)c2ccccc21` (racemic) the IC50 [2] was 120 nM and the Selectivity ratio (Cavia porcellus) was 545.

With `COc1ccc(NC(=O)NC2N=C(c3ccccc3)c3ccccc3N(C)C2=O)cc1` (racemic) the IC50 [2] was 165 nM and the Selectivity ratio (Cavia porcellus) was 6.

For `COc1cccc(NC(=O)NC2N=C(c3ccccc3)c3ccccc3N(CCN(C)C)C2=O)c1` (racemic), the IC50 [2] was 3090 nM and the Selectivity ratio (Cavia porcellus) was 16.

Work on `COc1cccc(NC(=O)NC2N=C(c3ccccc3)c3ccccc3N(CC(=O)N3CCCC3)C2=O)c1` (racemic) yielded an IC50 [2] of 170 nM and a Selectivity ratio (Cavia porcellus) of 708.

In the case of `CCN(CC)C(=O)CN1C(=O)C(NC(=O)Nc2cccc(C)c2)N=C(c2ccccn2)c2ccccc21` (racemic), the IC50 [2] is reported as 435 nM and the Selectivity ratio (Cavia porcellus) is reported as 776.

`Cc1cccc(NC(=O)NC2N=C(c3ccccc3)c3ccccc3N(CC(=O)Nc3ccncc3)C2=O)c1` (racemic) gave an IC50 [2] of 1100 nM and a Selectivity ratio (Cavia porcellus) of 23.

Work on `Cc1cccc(NC(=O)NC2N=C(c3cccnc3)c3ccccc3N(C)C2=O)c1` (racemic) yielded a concentration at 2 h [1] of 191 ng/mL, an IC50 [2] of 2300 nM and a concentration at 0.5 h [3] of 219 ng/mL. For the same compound, the Selectivity ratio (Cavia porcellus) was 25.

`CN1C(=O)C(NC(=O)Nc2cccnc2)N=C(c2ccccc2)c2ccccc21` (racemic) showed an IC50 [2] of 120 nM and a Selectivity ratio (Cavia porcellus) of 0.4.

For `Cc1cccc(NC(=O)NC2N=C(c3ccccc3)c3cnccc3N(C)C2=O)c1` (racemic), the IC50 [2] was 61.4 nM and the Selectivity ratio (Cavia porcellus) was 0.1.

`CN1C(=O)C(NC(=O)Nc2ccccn2)N=C(c2ccccc2)c2ccccc21` (racemic) showed an IC50 [2] of 447 nM and a Selectivity ratio (Cavia porcellus) of 1.3.

Work on `COc1cccc(NC(=O)NC2N=C(c3ccccc3)c3ccccc3N(CC[N+](C)(C)C)C2=O)c1` (racemic) yielded an IC50 [2] of 17000 nM and a Selectivity ratio (Cavia porcellus) of 15.

In the case of `Cc1cccc(NC(=O)NC2N=C(c3ccccc3)c3ccccc3N(CCO)C2=O)c1` (racemic), the concentration at 2 h [1] is reported as 95 ng/mL, the IC50 [2] is reported as 270 nM and the concentration at 0.5 h [3] is reported as 156 ng/mL. For the same compound, the Selectivity ratio (Cavia porcellus) was 6.

With `Cc1cccc(NC(=O)NC2N=C(c3ccccc3)c3ccccc3N(CC(=O)N3CC[N+](C)(C)CC3)C2=O)c1` (racemic) the IC50 [2] was 6200 nM and the Selectivity ratio (Cavia porcellus) was 107.

Work on `CCOC(=O)CN1C(=O)C(NC(=O)c2ccc(Cl)cc2)N=C(c2ccccc2F)c2ccccc21` (racemic) yielded an IC50 [5] of 1900 nM and a Selectivity ratio (Cavia porcellus) of 0.06.

Compound `CN1C(=O)C(NC(=O)Nc2ccc(Cl)cc2)N=C(c2ccccc2)c2ccccc21` (racemic) has an IC50 [2] of 1200 nM and a Selectivity ratio (Cavia porcellus) of 15.

Compound `CCOC(=O)CN1C(=O)C(NC(=O)Nc2ccc(Cl)cc2)N=C(c2ccccc2F)c2ccccc21` (racemic) has an IC50 [5] of 1.2 nM, an ED50 (Mus musculus [6]) of over 2 mg/kg and a Selectivity ratio (Cavia porcellus) of 183. It also gave an ED50 (Mus musculus [7]) of 0.7 mg/kg and an ED50 (Mus musculus [8]) of 6 mg/kg.

In the case of `O=C(Nc1ccc(Cl)cc1)NC1N=C(c2ccccc2)c2ccccc2N(CC(=O)N2CCCC2)C1=O` (racemic), the IC50 [2] is reported as 1000 nM and the Selectivity ratio (Cavia porcellus) is reported as 625.

For `Cc1cccc(NC(=O)NC2N=C(c3ccccc3)c3ccccc3N(CC(=O)N3CCN(C)CC3)C2=O)c1` (racemic), the IC50 [2] was 760 nM and the Selectivity ratio (Cavia porcellus) was 217.

`Cc1cccc(NC(=O)N[C@@H]2N=C(c3ccccc3)c3ccccc3N(C)C2=O)c1` [L-365260] showed a concentration at 2 h [1] of 194 ng/mL and a concentration at 0.5 h [3] of 172 ng/mL.
